pIC50: −log10 of the molar value.
Columns and labels:
BRaf [1] = target: T1, BRaf (Homo sapiens, UniProt P15056); test: 33PanQinase enzyme assay, BRaf; format: biochemical; conditions: ratio IC50(BRaf)/IC50(MKK4)
T1 construct: purchased ProQinase GmbH, Freiburg, Germany (33PanQinase Assay Service)
Outline: (§1)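 33Pi incorporation, read by microplate scintillation counting, measured kinase activity after 60 min at 30 °C. Reactions were quenched with 2% (v/v) H3PO4 and washed with 0.9% NaCl. IC50 derived by least-squares fitting; single doses reported as % residual activity.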

MKK4 [2] = target: T2, MKK4 (Homo sapiens, UniProt P45985); test: 33PanQinase enzyme assay, MKK4; format: biochemical; conditions: assay 'IC50'; read-out: Potency MKK4 (IC50)
T2 construct: purchased ProQinase GmbH, Freiburg, Germany (33PanQinase Assay Service)
T2 sequence (P45985 1-399): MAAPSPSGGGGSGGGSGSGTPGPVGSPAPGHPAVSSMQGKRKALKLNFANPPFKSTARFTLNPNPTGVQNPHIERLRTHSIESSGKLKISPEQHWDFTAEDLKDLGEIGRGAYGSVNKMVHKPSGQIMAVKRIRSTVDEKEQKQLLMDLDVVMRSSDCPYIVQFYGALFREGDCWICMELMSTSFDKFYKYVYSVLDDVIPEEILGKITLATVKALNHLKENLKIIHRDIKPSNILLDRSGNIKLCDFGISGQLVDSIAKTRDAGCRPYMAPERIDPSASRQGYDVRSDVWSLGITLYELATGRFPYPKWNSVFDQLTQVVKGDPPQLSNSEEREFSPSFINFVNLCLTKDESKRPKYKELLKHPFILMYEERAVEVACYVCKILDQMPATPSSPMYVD
Outline: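 Inhibition measured as 33Pi transfer to substrate after a 60-min, 30 °C reaction, acid-stopped and scintillation-counted.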

JNK1 [3] = target: T3, JNK1 (Homo sapiens, UniProt P45983); test: 33PanQinase enzyme assay, JNK1; format: biochemical; set-up: purchased ProQinase GmbH, Freiburg, Germany (33PanQinase Assay Service); conditions: ratio IC50(JNK1)/IC50(MKK4)
Outline: as §1
Target sequence in this assay (P45983 whole entry): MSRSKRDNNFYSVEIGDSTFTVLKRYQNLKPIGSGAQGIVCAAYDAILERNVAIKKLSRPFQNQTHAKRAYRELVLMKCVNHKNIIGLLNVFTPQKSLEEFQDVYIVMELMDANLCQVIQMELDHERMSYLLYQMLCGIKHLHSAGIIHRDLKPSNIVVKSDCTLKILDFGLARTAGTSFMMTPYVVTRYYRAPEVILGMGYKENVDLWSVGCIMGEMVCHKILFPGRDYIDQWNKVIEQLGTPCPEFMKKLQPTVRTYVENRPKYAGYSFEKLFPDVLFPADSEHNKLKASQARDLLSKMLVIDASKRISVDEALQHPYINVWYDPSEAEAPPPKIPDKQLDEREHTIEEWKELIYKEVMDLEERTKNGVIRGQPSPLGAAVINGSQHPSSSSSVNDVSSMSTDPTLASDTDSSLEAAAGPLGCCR

BRaf [4] = target: T1, BRaf; test: KINOMEscan competition binding assay, BRaf; conditions: ratio PoC (off-target)/PoC (MKK4)
Outline: (§2)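 DNA-tagged kinases expressed in HEK-293 cells compete between immobilized ligand on blocked beads and test compound at 100 nM; kinase retained on beads quantified by qPCR of the tag.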

MKK7 [5] = target: T4, MKK7 (Homo sapiens, UniProt O14733); test: 33PanQinase enzyme assay, MKK7; format: biochemical; set-up: purchased ProQinase GmbH, Freiburg, Germany (33PanQinase Assay Service); conditions: ratio IC50(MKK7)/IC50(MKK4)
T4 sequence (O14733 1-419): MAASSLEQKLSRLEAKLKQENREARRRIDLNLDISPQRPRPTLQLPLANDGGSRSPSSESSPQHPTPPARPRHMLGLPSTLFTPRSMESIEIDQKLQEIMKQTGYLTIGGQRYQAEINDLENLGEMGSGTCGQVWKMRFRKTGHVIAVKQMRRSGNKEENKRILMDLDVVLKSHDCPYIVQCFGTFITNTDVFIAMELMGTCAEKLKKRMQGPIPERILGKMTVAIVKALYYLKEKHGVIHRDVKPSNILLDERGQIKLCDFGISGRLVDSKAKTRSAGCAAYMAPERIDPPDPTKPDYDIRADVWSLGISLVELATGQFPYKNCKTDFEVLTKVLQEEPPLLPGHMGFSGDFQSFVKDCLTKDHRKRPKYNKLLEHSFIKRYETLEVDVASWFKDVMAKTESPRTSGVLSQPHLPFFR
Outline: as §1

MKK7 [6] = target: T4, MKK7; test: KINOMEscan competition binding assay, MKK7; set-up: M1/R419; host or cells: HEK-293; conditions: ratio PoC (off-target)/PoC (MKK4)
Outline: as §2

JNK1 [7] = target: T3, JNK1; test: KINOMEscan competition binding assay, JNK1; set-up: M1/Q384; host or cells: HEK-293; conditions: ratio PoC (off-target)/PoC (MKK4)
Outline: as §2
Target sequence in this assay (P45983 1-384 isoform P45983-2): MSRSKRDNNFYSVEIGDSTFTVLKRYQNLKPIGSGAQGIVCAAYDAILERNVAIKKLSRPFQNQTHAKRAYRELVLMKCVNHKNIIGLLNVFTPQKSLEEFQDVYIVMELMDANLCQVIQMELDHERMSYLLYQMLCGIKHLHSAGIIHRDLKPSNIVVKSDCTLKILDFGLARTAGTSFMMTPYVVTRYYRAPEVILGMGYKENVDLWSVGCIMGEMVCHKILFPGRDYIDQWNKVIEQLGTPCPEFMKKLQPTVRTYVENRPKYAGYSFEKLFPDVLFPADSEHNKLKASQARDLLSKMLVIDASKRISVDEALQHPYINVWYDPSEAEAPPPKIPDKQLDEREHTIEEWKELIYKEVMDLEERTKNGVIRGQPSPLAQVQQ

MKK4 [8] = target: T5, MKK4 (Homo sapiens, UniProt P45985); test: KINOMEscan competition binding assay, MKK4; conditions: residual percent of control binding (PoC) at 100 nM
T5 construct: S84/D399; host or cells: HEK-293
T5 sequence (P45985 84-399): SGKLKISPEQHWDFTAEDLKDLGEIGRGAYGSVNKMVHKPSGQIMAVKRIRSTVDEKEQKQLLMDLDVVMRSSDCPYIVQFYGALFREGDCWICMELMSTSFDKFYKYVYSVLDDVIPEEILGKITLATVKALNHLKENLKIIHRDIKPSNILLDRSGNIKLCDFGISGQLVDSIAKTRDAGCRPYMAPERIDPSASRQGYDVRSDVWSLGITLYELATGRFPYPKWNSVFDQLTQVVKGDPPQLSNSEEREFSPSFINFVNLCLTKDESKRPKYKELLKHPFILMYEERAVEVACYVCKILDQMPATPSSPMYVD
Outline: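 Tested at 100 nM and reported as percent of control binding (PoC). MKK4 was produced in HEK-293 cells and DNA-tagged. Displacement from ligand-coated, blocked beads was read by qPCR of eluted kinase.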

T1 sequence (P15056 whole entry, species assumed): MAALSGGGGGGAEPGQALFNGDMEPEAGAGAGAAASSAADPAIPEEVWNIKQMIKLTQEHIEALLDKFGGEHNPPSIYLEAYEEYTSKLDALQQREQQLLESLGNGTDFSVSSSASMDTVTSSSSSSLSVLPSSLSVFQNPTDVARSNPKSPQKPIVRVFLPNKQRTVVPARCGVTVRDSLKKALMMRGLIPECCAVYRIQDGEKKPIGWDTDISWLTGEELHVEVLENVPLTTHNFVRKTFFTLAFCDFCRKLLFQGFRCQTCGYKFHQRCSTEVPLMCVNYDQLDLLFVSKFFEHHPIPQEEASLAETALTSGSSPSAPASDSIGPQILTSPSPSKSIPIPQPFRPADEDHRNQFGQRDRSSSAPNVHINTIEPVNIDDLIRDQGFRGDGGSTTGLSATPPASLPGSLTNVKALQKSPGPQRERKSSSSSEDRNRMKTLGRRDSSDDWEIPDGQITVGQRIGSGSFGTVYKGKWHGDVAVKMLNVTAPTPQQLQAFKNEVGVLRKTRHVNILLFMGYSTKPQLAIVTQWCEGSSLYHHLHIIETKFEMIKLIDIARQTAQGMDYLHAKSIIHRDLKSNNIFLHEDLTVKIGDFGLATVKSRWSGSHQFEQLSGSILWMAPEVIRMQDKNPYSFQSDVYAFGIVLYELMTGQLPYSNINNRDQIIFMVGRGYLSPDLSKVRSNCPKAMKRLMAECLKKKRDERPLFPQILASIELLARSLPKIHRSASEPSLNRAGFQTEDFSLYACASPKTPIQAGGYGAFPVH

Row | SMILES | Selectivity Braf, IC50(off-target)/IC50(MKK4) (BRaf [1]) | pIC50 (MKK4 [2]) | Selectivity JNK1, IC50(off-target)/IC50(MKK4) (JNK1 [3]) | selectivity based on % Ctrl @100 nM vs. Braf (BRaf [4]) | Selectivity IVIKK7, IC50(off-target)/IC50(MKK4) (MKK7 [5]) | selectivity based on % Ctrl @100 nM vs. MKK7 (MKK7 [6]) | selectivity based on % Ctrl @100 nM vs. JNK1 (JNK1 [7]) | MKK4 [% Ctrl @ 100 nM (MKK4 [8])
1 | Cc1cc(F)ccc1-c1cnc2[nH]cc(C(=O)c3cccc(NS(=O)(=O)Cc4ccccc4)c3F)c2c1 [Example 126, N-(2-fluoro-3-(5-(4-fluoro-2-methylphenyl)-1H-pyrrolo[2,3-b]pyridine-3-carbonyl)phenyl)-1-phenylmethanesulfonamide] | +++ (IC50(off-target)/IC50(MKK4) > 100) | 6.00 to 7.00 | + (10 ≥ IC50(off-target)/IC50(MKK4) > 3) | ++ (100 ≥ ratio > 10) | +++ (IC50(off-target)/IC50(MKK4) > 100) | ++ (100 ≥ ratio > 10) | ++ (100 ≥ ratio > 10) | + (3 ≤ PoC < 30)
2 | CCCS(=O)(=O)Nc1ccc(F)c(C(=O)c2c[nH]c3ncc(-c4ccc([N+](=O)[O-])cc4)cc23)c1F [Example 107, N-(2,4-difluoro-3-(5-(4-nitrophenyl)-1H-pyrrolo[2,3-b]pyridine-3-carbonyl)phenyl)propane-1-sulfonamide] | ◯ (3 ≥ IC50(off-target)/IC50(MKK4)) | 6.00 to 7.00 | + (10 ≥ IC50(off-target)/IC50(MKK4) > 3) | + (10 ≥ ratio > 3) | +++ (IC50(off-target)/IC50(MKK4) > 100) | ++ (100 ≥ ratio > 10) | ++ (100 ≥ ratio > 10) | + (3 ≤ PoC < 30)
3 | CCCS(=O)(=O)Nc1ccc(F)c(C(=O)c2c[nH]c3ncc(-c4ccc(C(N)=O)cc4)cc23)c1F [Example 109, 4-(3-(2,6-difluoro-3-(propylsulfonamido)benzoyl)-1H-pyrrolo[2,3-b]pyridin-5-yl)benzamide] | ◯ (3 ≥ IC50(off-target)/IC50(MKK4)) | 6.00 to 7.00 | + (10 ≥ IC50(off-target)/IC50(MKK4) > 3) | + (10 ≥ ratio > 3) | +++ (IC50(off-target)/IC50(MKK4) > 100) | +++ (Ratio > 100) | +++ (Ratio > 100) | +++ (PoC < 1)
4 | CCCS(=O)(=O)Nc1c(F)ccc(C(=O)c2c[nH]c3ncc(-c4cnc(C(F)(F)F)nc4)cc23)c1F [Example 184, N-(2,6-difluoro-3-(5-(2-(trifluoromethyl)pyrimidin-5-yl)-1H-pyrrolo[2,3-b]pyridine-3-carbonyl)phenyl)propane-1-sulfonamide] | +++ (IC50(off-target)/IC50(MKK4) > 100) | 6.00 to 7.00 | ++ (100 ≥ IC50(off-target)/IC50(MKK4) > 10) | +++ (Ratio > 100) | +++ (IC50(off-target)/IC50(MKK4) > 100) | +++ (Ratio > 100) | +++ (Ratio > 100) | +++ (PoC < 1)
5 | O=C(c1cccc(NS(=O)(=O)Cc2ccccc2)c1F)c1c[nH]c2ncc(-c3cc4c(cc3Cl)OCO4)cc12 [Example 128, N-(3-(5-(6-chlorobenzo[d][1,3]dioxol-5-yl)-1H-pyrrolo[2,3-b]pyridine-3-carbonyl)-2-fluorophenyl)-1-phenylmethanesulfonamide] | +++ (IC50(off-target)/IC50(MKK4) > 100) | 6.00 to 7.00 | + (10 ≥ IC50(off-target)/IC50(MKK4) > 3) | ++ (100 ≥ ratio > 10) | +++ (IC50(off-target)/IC50(MKK4) > 100) | ++ (100 ≥ ratio > 10) | ++ (100 ≥ ratio > 10) | ++ (1 ≤ PoC < 3)

Next, values leading:

Row | Selectivity Braf, IC50(off-target)/IC50(MKK4) (BRaf [1]) | pIC50 (MKK4 [2]) | Selectivity JNK1, IC50(off-target)/IC50(MKK4) (JNK1 [3]) | selectivity based on % Ctrl @100 nM vs. Braf (BRaf [4]) | Selectivity IVIKK7, IC50(off-target)/IC50(MKK4) (MKK7 [5]) | selectivity based on % Ctrl @100 nM vs. MKK7 (MKK7 [6]) | selectivity based on % Ctrl @100 nM vs. JNK1 (JNK1 [7]) | MKK4 [% Ctrl @ 100 nM (MKK4 [8]) | SMILES
6 | +++ (IC50(off-target)/IC50(MKK4) > 100) | > 7.00 | +++ (IC50(off-target)/IC50(MKK4) > 100) | +++ (Ratio > 100) | +++ (IC50(off-target)/IC50(MKK4) > 100) | +++ (Ratio > 100) | +++ (Ratio > 100) | +++ (PoC < 1) | CCCS(=O)(=O)Nc1c(F)ccc(C(=O)c2c[nH]c3ncc(-c4ccc(C)nc4)cc23)c1F [Example 229, N-(2,6-difluoro-3-(5-(6-methylpyridin-3-yl)-1H-pyrrolo[2,3-b]pyridine-3-carbonyl)phenyl)propane-1-sulfonamide]
7 | +++ (IC50(off-target)/IC50(MKK4) > 100) | > 7.00 | +++ (IC50(off-target)/IC50(MKK4) > 100) | +++ (Ratio > 100) | +++ (IC50(off-target)/IC50(MKK4) > 100) | +++ (Ratio > 100) | +++ (Ratio > 100) | +++ (PoC < 1) | O=C(c1ccc(F)c(NS(=O)(=O)CCC(F)(F)F)c1F)c1c[nH]c2ncc(-c3cnc(N4CCCC4)nc3)cc12 [Example 179, N-(2,6-difluoro-3-(5-(2-(pyrrolidin-1-yl)pyrimidin-5-yl)-1H-pyrrolo[2,3-b]pyridine-3-carbonyl)phenyl)-3,3,3-trifluoropropane-1-sulfonamide]

Reference: patent US11912701B2, “Protein kinase inhibitors for promoting liver regeneration or reducing or preventing hepatocyte death” (HEPAREGENIX GMBH, priority 2018, dated 2024)
